# Columns and labels:
# [1] = biological target: T1, Estrogen receptor (Homo sapiens) (UniProt P03372)
# T1 sequence (whole entry): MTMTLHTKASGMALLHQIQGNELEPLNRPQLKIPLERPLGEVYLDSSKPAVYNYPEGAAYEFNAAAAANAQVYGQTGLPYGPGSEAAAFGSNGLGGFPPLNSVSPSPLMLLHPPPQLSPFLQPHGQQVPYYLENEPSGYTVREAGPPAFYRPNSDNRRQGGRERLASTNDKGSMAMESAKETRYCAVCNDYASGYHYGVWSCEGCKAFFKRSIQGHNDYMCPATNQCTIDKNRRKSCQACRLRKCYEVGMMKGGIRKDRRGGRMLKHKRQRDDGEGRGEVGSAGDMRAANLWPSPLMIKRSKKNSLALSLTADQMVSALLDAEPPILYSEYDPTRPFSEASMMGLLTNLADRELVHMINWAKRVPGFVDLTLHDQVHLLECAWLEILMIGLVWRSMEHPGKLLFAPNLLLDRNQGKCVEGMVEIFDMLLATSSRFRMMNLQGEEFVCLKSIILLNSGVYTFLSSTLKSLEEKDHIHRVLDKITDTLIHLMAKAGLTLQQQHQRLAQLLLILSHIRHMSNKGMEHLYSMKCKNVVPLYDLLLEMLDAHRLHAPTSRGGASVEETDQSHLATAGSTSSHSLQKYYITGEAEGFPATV
# Description: Relative binding affinity for human estrogen receptor 1 compared to [3H]estradiol (100%)
# [2] = biological target: Estrogen receptor beta (Homo sapiens) (UniProt Q92731)
# Estrogen receptor beta (Homo sapiens), sequence (Q92731 whole entry): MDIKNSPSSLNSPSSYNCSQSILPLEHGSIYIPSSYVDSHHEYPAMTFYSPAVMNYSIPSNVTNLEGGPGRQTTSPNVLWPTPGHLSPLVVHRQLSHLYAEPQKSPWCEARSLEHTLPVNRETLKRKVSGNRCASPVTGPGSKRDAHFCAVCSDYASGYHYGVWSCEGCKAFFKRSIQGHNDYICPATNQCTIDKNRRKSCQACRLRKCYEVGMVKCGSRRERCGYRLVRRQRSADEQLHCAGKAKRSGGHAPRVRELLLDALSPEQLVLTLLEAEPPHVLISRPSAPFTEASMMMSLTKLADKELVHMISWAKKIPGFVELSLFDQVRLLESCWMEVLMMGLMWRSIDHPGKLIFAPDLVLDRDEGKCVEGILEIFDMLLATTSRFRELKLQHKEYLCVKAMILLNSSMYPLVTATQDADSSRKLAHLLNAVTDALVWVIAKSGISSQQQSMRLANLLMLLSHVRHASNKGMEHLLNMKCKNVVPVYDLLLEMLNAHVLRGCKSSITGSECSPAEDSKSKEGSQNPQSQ
# Description: Relative binding affinity for human estrogen receptor 2 compared to [3H]estradiol (100%)
Binding affinity [1],Binding affinity [2],Compound
< 0.01,< 0.01,c1ccc(-c2nn3cccnc3c2-c2ccccc2)cc1
0.83,0.02,Cc1c(C(C)(C)C)nc2c(-c3ccccc3)c(-c3ccc(O)cc3)nn2c1C(C)(C)C
0.02,0.03,Oc1ccc(-c2nn3c(-c4ccccc4)cc(-c4ccccc4)nc3c2-c2ccc(O)cc2)cc1
< 0.01,< 0.01,Cc1cc(C)n2nc(-c3ccccc3)c(-c3ccccc3)c2n1
< 0.01,< 0.01,Oc1ccc(-c2nn3c(-c4ccccc4)cc(-c4ccccc4)nc3c2-c2cccc(O)c2)cc1
0.02,0.05,CCc1cc(CC)n2nc(-c3ccccc3)c(-c3ccc(O)cc3)c2n1
< 0.01,< 0.01,Cc1nc2c(-c3cccc(O)c3)c(-c3ccc(O)cc3)nn2c(C)c1C
0.02,0.11,Cc1cc(C)n2nc(-c3ccc(O)cc3)c(-c3ccccc3)c2n1
< 0.01,< 0.01,FC(F)(F)c1cc(C(F)(F)F)n2nc(-c3ccccc3)c(-c3ccccc3)c2n1
< 0.01,< 0.01,Oc1ccc(-c2c(-c3cccc(O)c3)nn3c(-c4ccccc4)cc(-c4ccccc4)nc23)cc1
< 0.01,0.01,Cc1nc2c(-c3ccc(O)cc3)c(-c3ccccc3)nn2c(C)c1C
< 0.01,< 0.01,CCc1cc(CC)n2nc(-c3ccccc3)c(-c3ccccc3)c2n1
< 0.01,0.1,Oc1ccc(-c2nn3cccnc3c2-c2ccc(O)cc2)cc1
0.13,0.06,CCc1cc(CC)n2nc(-c3ccc(O)cc3)c(-c3ccccc3)c2n1
0.04,0.07,Cc1cc(C)n2nc(-c3ccc(O)cc3)c(-c3ccc(O)cc3)c2n1
< 0.01,< 0.01,CCc1cc(CC)n2nc(-c3ccc(O)cc3)c(-c3cccc(O)c3)c2n1
< 0.01,< 0.01,Oc1ccc(-c2nn3c(-c4ccccc4)cc(-c4ccccc4)nc3c2-c2ccccc2)cc1
< 0.01,< 0.01,Cc1nc2c(-c3ccc(O)cc3)c(-c3cccc(O)c3)nn2c(C)c1C
< 0.01,< 0.01,Cc1c(C(C)(C)C)nc2c(-c3ccc(O)cc3)c(-c3cccc(O)c3)nn2c1C(C)(C)C
< 0.01,< 0.01,Oc1ccc(-c2nn3cccnc3c2-c2cccc(O)c2)cc1
0.04,0.08,Oc1ccc(-c2nn3c(C(F)(F)F)cc(C(F)(F)F)nc3c2-c2cccc(O)c2)cc1
0.13,0.16,Cc1c(C(C)(C)C)nc2c(-c3ccc(O)cc3)c(-c3ccc(O)cc3)nn2c1C(C)(C)C

Binding affinity [1],Binding affinity [2],Compound
0.01,0.05,Oc1ccc(-c2c(-c3ccccc3)nn3c(C(F)(F)F)cc(C(F)(F)F)nc23)cc1
0.01,0.02,Cc1nc2c(-c3ccccc3)c(-c3ccc(O)cc3)nn2c(C)c1C
< 0.01,0.02,Oc1ccc(-c2nn3cccnc3c2-c2ccccc2)cc1
< 0.01,0.01,CC(C)c1cc(C(C)C)n2nc(-c3cccc(O)c3)c(-c3ccc(O)cc3)c2n1
0.01,< 0.01,CC(C)c1cc(C(C)C)n2nc(-c3ccc(O)cc3)c(-c3cccc(O)c3)c2n1
0.14,0.06,CC(C)c1cc(C(C)C)n2nc(-c3ccc(O)cc3)c(-c3ccccc3)c2n1
0.01,0.05,Cc1cc(C)n2nc(-c3ccccc3)c(-c3ccc(O)cc3)c2n1
< 0.01,< 0.01,Oc1ccc(-c2c(-c3ccccc3)nn3c(-c4ccccc4)cc(-c4ccccc4)nc23)cc1
< 0.01,0.01,Cc1c(C(C)(C)C)nc2c(-c3ccc(O)cc3)c(-c3ccccc3)nn2c1C(C)(C)C
0.01,0.04,Oc1ccc(-c2c(-c3cccc(O)c3)nn3c(C(F)(F)F)cc(C(F)(F)F)nc23)cc1
0.1,0.07,CC(C)c1cc(C(C)C)n2nc(-c3ccc(O)cc3)c(-c3ccc(O)cc3)c2n1
0.16,0.07,CCc1cc(CC)n2nc(-c3ccc(O)cc3)c(-c3ccc(O)cc3)c2n1
0.02,0.01,Cc1c(C(C)(C)C)nc2c(-c3cccc(O)c3)c(-c3ccc(O)cc3)nn2c1C(C)(C)C
< 0.01,< 0.01,CCc1cc(CC)n2nc(-c3cccc(O)c3)c(-c3ccc(O)cc3)c2n1
0.01,0.01,Cc1nc2c(-c3ccc(O)cc3)c(-c3ccc(O)cc3)nn2c(C)c1C
< 0.01,< 0.01,Oc1ccc(-c2c(-c3cccc(O)c3)nn3cccnc23)cc1
< 0.01,< 0.01,Cc1cc(C)n2nc(-c3cccc(O)c3)c(-c3ccc(O)cc3)c2n1
0.01,0.05,CC(C)c1cc(C(C)C)n2nc(-c3ccccc3)c(-c3ccc(O)cc3)c2n1
0.01,0.05,Oc1ccc(-c2c(-c3ccccc3)nn3cccnc23)cc1
0.39,0.41,Oc1ccc(-c2nn3c(C(F)(F)F)cc(C(F)(F)F)nc3c2-c2ccccc2)cc1
1.9,1.7,Oc1ccc(-c2nn3c(C(F)(F)F)cc(C(F)(F)F)nc3c2-c2ccc(O)cc2)cc1
< 0.01,< 0.01,Cc1cc(C)n2nc(-c3ccc(O)cc3)c(-c3cccc(O)c3)c2n1
